In US10564164B2, “Fluorescent probe, singlet oxygen detection agent, and singlet oxygen detection method” (Osaka University, priority 2014, dated 2020):

Tests used:
[1] = Selectivity test against various reactive oxygen species; assay type: physicochemical; conditions: 5 μM in methanol:PBS pH 7.4 1:1, 10 minutes in dark
Procedure: A test was performed to confirm whether Si-DMA of Example 1 causes no self-oxidation of dye and is selectively responsive to singlet oxygen.
However, formation of aggregates decreases the effective concentration of the dye, thereby decreasing the reaction speed of Si-DMA. Therefore, a 5-μM Si-DMA solution was first prepared using a mixed solvent containing methanol and a pH 7.4 PBS buffer solution mixed at 1:1. In this solution, Si-DMA was present as a monomer. Subsequently, 10-mM solutions of various reactive oxygen species (ROS)(^1O2, O2.^−, H2O2, HOCl, ROO., and .OH) were prepared by adding the following additives to the 5-μM Si-DMA solution obtained above.
5. ROO.: 10 mM 2,2-azobis(2-amidinopropane)dihydrochloride
Under intense magnetic stirring, each Si-DMA solution containing reactive oxygen species (ROS) was stored for 10 minutes in a dark room. […]

[2] = test system: HeLa cells; experiment: Viable cell imaging / localization in organelle; assay type: cell-based; conditions: Si-DMA 20 nM / 100 nM, co-staining with Mito Tracker Green FM
Procedure: A treatment requiring incubation of less than two hours was performed using a serum-free culture medium containing 20 mM of HEPES, and a treatment requiring incubation of four hours or more was performed using a blood serum-containing medium containing 20 mM of HEPES so as to maintain the cell viability. To label mitochondria, Mito Tracker® Green FM was diluted to 50 nM, and incubated for 30 minutes. Further, 10000 MW of dextran (A488- and A647-dextran) labeled with Alexa Fluor® 488 or Alexa Fluor® 647 was diluted to 50 μg/mL, and incubated for 24 hours, thereby staining lysosome.
Subsequently, a quick protocol provided by Molecular Probe® for introducing CellROX Green was followed. […] As a result, as previously reported, the conversion of 5-ALA into protoporphyrin IX (PpIX) in the mitochondria was confirmed by the fluorescence luminescence of PpIX.
In order to monitor an increase in fluorescence upon light irradiation on Si-DMA of Example 1, irradiation on reactive oxygen species was performed while monitoring the probe using an IX81 inverted fluorescence microscope (Olympus Corporation) and 640-nm CW laser (Coherent). […] The images of luminescence were collected and recorded by an EMCCD camera (Evolve 512; Roper Scientific) via a dichroic beam splitter (DI02-R635; Semrock) and a bandpass filter (HQ690/70; Chroma). […]

**Q.** Which results are given for `Cc1c2ccccc2c(C)c2cc(C3=C4C=CC(=[N+](C)C)C=C4[Si](C)(C)c4cc(N(C)C)ccc43)ccc12` [Si-DMA]?
**A.** fluorescence intensity in the presence of reactive oxygen species ([1]; other reactive oxygen species (O2.-, H2O2, HOCl, ROO., .OH)): no increase in fluorescence was observed; fluorescence intensity in the presence of reactive oxygen species ([1]; singlet oxygen (10 mM NaOCl and 10 mM H2O2)): significantly increased; intracellular localization [2]: selectively localized in mitochondria
